Experimental data published in US20230219898A1, “COMPOUNDS AND METHODS FOR BLOCKING APOPTOSIS AND INDUCING AUTOPHAGY” (President and Fellows of Harvard College, priority 2020, published 2023).

Columns and labels:
[1] = test system: PS19 mice injected with tau pffs; assay: Tau pff transmission model in PS19 mice, Apt-1 delivered intracerebroventricularly
panel of 97 kinases = assay: KINOMEscan profiling; type: binding; conditions: 10 μM
Procedure: FIG. 5d depicts the KINOMEscan profiling of Apt-1 (10 μM) against a panel of 97 kinases. Binding interactions reported as % Ctrl, where lower numbers indicate stronger hits. Negative control=DMSO (100% Ctrl); positive control=control compound (0% Ctrl); 0<% Ctrl <0.1 Very Strong; 0.1≤% Ctrl <1 Strong; 1≤% Ctrl <10 Medium; […] Weak; % Ctrl ≥35 No effects. No significant binding of Apt-1 to this panel of 97 kinases was detected. CellTiter-Glo was used to determine cell survival in (a), (b), and (c).
KINOMEscan profiling was used to assess the interaction of Apt-1 with a panel of 97 kinases as a custom service (DiscoverX/Eurofins, San Diego, Calif. USA). Briefly, DNA-tagged recombinant kinases were produced in E. coli. The assay plates with kinases were incubated at room temperature with shaking for 1 h and the affinity beads were washed with wash buffer (1×PBS, 0.05% Tween 20). The beads were then re-suspended in elution buffer. The kinase concentration in the eluates was measured by qPCR. Apt-1 were screened at […], and the results for primary screen binding interactions are reported as % Ctrl, where lower numbers indicate stronger hits in the matrix.

mice injected with mTNFα = assay: In vivo delivery of TNFα, systemic inflammation model; conditions: Apt-1 20 mg/kg i.p. 30 min before mTNFα 9.5 μg i.v.
Procedure: Control mice (n=9) received an equal amount of vehicle before mTNFα challenge. Mean s.e.m. Two-way ANOVA. ***P=0.0007.
WT mice (n=10, male, 8 weeks of age) were injected intravenously via the tail vein with mTNFα (9.5 μg/mouse) after an intraperitoneal injection of Apt-1 (20 mg/kg) 30 min before. Control mice (n=9) received an equal amount of vehicle 30 min before mTNFα challenge. Kaplan Meier survival curve was determined. 25. Vps34 lipid kinase assay HEK293T cells were transfected with Flag-Beclin 1 for 18 h and then treated with ICCB-19, ICCB-19i, Apt-1 (10 μM) for another 6 h. Flag-Beclin 1 was immunoprecipitated by anti-Flag to isolate Beclin 1/Vps34 complex. Immunoprecipitated beads were added with sonicated phosphatidylinositol (1 μl of 5 mg) and ATP (1 μl of 10 mM) in 30 μl reaction buffer (40 mM Tris (pH 7.5), 20 mM MgCl2, 1 mg/ml BSA) for 30 min at room temperature. Wortmannin (10 μM) was used as a control and added into the reaction to inhibit Vps34. The conversion of ATP into ADP levels was measured by an ADP-Glo Kinase Assay Kit (Promega) according to the manufacturer's instructions.

RIPK1 in complex I = assay: RIPK1 activation in complex I of TNFα-stimulated MEFs; type: cell-based, mouse; conditions: 10 μM
Procedure: Cells were seeded in 15 cm dishes and treated as indicated with Flag-TNFα ([…]). To terminate treatment, media was removed and plates were washed with 50 mL of ice cold PBS. Plates were frozen at −80C until all time points were acquired. Plates were thawed on ice and cells were lysed in 0.5% NP-40 lysis buffer (50 mM Tris-HCl pH 7.5, 150 mM NaCl and 0.5% NP-40) supplemented with protease inhibitors and N-Ethylmaleimide (2.5 mg/ml). Cell lysates were rotated at 4° C. for 30 min then clarified at 4° C. at 14,000 rpm for 30 min. Proteins were immunoprecipitated from cleared protein lysates with 20 μl of anti-Flag M2 beads (Sigma) with rotation overnight at 4° C. 4×washes in 0.5% NP-40 buffer with N-Ethylmaleimide were performed, and samples eluted by boiling in 50 μl 1×SDS loading buffer. For complex-II purification cells were seeded in 10 cm dishes and treated as indicated using media containing TNFα (10 ng/ml) and zVAD (20 μM). Cells were lysed on ice in 0.5% NP-40 lysis buffer. Cell lysates were rotated at 4C for 30 min then clarified at 4C at 14,000 rpm for 10 min. 20 μl of protein G Sepharose (Sigma), after pre-blocking for 1 h with lysis buffer containing 1% BSA, were incubated with FADD antibody ([…]) and the mixture was incubated in rotation with cleared protein lysates 4 h at 4C. […]

Row | SMILES | survival or behavior of the mice ([1]; 20 mM Apt-1 ICV pump, one month or one week) | accumulation of tangle-like tau aggregates, delayed dosing ([1]; Apt-1 for 1 week, 3 weeks after pffs) | autophagy and levels of tau in hippocampus ([1]; FIG. 3a) | neurofibrillary tangle-like pathogenesis induced by pffs (AT8, MC1) ([1]; FIG. 3b, 3c) | activated pRIPK1+ and apoptotic TUNEL+ cells in CA1 hippocampus ([1]; FIG. 3d, 3e) | off-target effects on 97 kinase targets (panel of 97 kinases) | survival following intravenously-delivered TNFα (mice injected with mTNFα) | activation of RIPK1 in complex I induced by TNFα (RIPK1 in complex I)
1 | CN1CCN=C1SC(C(=O)NC1CCCCCC1)c1ccccc1 (centres unmarked) [Compound 30] | no apparent difference in survival or behavior | effectively reduce the accumulation of tangle-like tau aggregates | induce autophagy and reduce the levels of tau | reduced neurofibrillary tangle-like pathogenesis | inhibited | no significant off-target effects | increased survival | 
2 | O=C(CSC1=NCCN1)NC1CCCCCC1 [ICCB-19] |  |  |  |  |  |  |  | reduced the rapid activation of RIPK1
